Test results taken from patent US12479834B2, “Phenol compound or salt thereof” (TAIHO PHARMACEUTICAL CO., LTD., priority 2019, dated 2025).

Tests used:
KRAS G12C mutant = molecular target: T1, KRAS G12C mutant (Homo sapiens, UniProt P01116, G12C); assay: Inhibition of SOS1-mediated nucleotide (GDP-GTP) exchange reaction of KRAS G12C mutant, BODIPY FL GDP fluorescence; format: biochemical; details: preincubated 25° C. 4 hours with 25 nM KRAS G12C bound with BODIPY FL GDP; SOS1 100 nM, GppNHp 1 μM, 30 minutes
T1 construct: 50 μM G12C K-Ras4B (1-169) protein and 1 mM BODIPY® FL GDP; His tag (N, cleaved yes); made in house; host or cells: E. coli BL21 (DE3)
Source text: (§1) SOS1 protein was expressed in E. coli strain BL21 (DE3) by synthesizing a nucleotide sequence encoding the amino acid sequence represented by GenPept ID NP_005624 as a sequence optimized for E. coli by use of GeneArt Technology (Life Technologies Corp.) such that the protein was N-terminally His-tagged and fused with a TEV protease recognition sequence (ENLYFQG). The expressed His-tagged SOS1 (564-1049) was purified through a Ni column, then cleaved at its tag with N-terminally His-tagged TEV protease, and passed through a Ni column again to recover a flow-through fraction to obtain the protein.
Each compound was studied for its inhibitory effect on the exchange reaction of GDP into GppNHp in BODIPY® FL bound with the KRAS G12C mutant by fluorescence measurement using the G12C K-Ras4B (1-169) protein and the SOS1 protein.
For the preparation of the KRAS G12C mutant bound with BODIPY® FL GDP, first, 50 μM G12C K-Ras4B (1-169) protein and 1 mM BODIPY® FL GDP (Invitrogen Corp., G22360) were incubated for 1 hour in a buffer solution (20 mM Tris-HCl (pH 7.5), 50 mM NaCl, and 1 mM DTT) in ice in the presence of 2.5 mM EDTA. Then, MgCl2 was added thereto at a final concentration of 10 mM, then the mixture was incubated at room temperature for 30 minutes, and then, the protein was passed through a NAP-5 column for removal of free nucleotides and used for compound evaluation.
For the measurement of the inhibitory activity of compounds against nucleotide exchange reaction, first, the compound of the present invention was serially diluted with DMSO. Subsequently, the serially diluted solution of the compound of the present invention in DMSO (final concentration of DMSO: 5%) and the KRAS G12C mutant (25 nM) bound with BODIPY® FL GDP were added into a reaction buffer solution (20 mM Tris-HCl (pH 7.5), 100 mM NaCl, 1 mM MgCl2, 2 mM DTT, and 0.1% Tween 20), and the mixture was preincubated at 25° C. for 4 hours. Then, Son of Sevenless Homolog 1 (SOS1, amino acid region: 564-1049) and GppNHp (GMPPNP, Jena Bioscience GmbH, NU-401-50) were added thereto at final concentrations of 100 nM and 1 μM, respectively, and the mixture was reacted for 30 minutes. The change in fluorescence intensity of BODIPY® FL (excitation wavelength: 485 nm, fluorescence wavelength: 520 nm) between immediately after the start of reaction and after 30 minutes from the start of reaction was standardized, and then, the compound concentration at which 50% inhibition was achieved was calculated as IC50 (nM) when the signal value for only DMSO was defined as 0% inhibition and the signal value for no addition of GppNHp was defined as 100% inhibition.

G12C K-Ras4B (1-169) = molecular target: T2, G12C K-Ras4B (1-169) (Homo sapiens, UniProt P01116, G12C); assay: Binding to KRAS G12C mutant, compound binding rate by LC-MS; details: final compound concentration 2 μM, 1 μM protein, 2 hours at 25° C.
T2 construct: G12C K-Ras4B (1-169) protein, which was a KRAS G12C mutant; His tag (N, cleaved yes); made in house; host or cells: E. coli BL21 (DE3)
Source text: as §1, with “K-Ras4B (1-169)” for “SOS1”, “NP_004976” for “NP_005624”, “K-Ras4B (1-169)” for “SOS1 (564-1049)”, “fraction, which was further purified by anion-exchange chromatography” for “fraction”, “protein. G12C K-Ras4B (1-169) protein, which was a KRAS G12C mutant, was obtained in the same way as in the K-Ras4B(1-169) protein except that glycine at position 12 of the amino acid sequence represented by GenPept ID NP_004976 was mutated to cysteine.” for “protein.”
The K-Ras4B (1-169) protein and the G12C K-Ras4B (1-169) protein were mixed and diluted with a buffer solution (1×TBS and 0.1 mM TCEP) to prepare a protein solution containing 1 μM each of the proteins. Each test compound was dissolved at 10 mM in DMSO and further diluted 10-fold with DMSO to make a 1 mM solution. Then, the solution was diluted 5-fold with DMSO to make a 200 μM solution. The 200 μM solution was further diluted 5-fold to make a […] solution. 1 μL of the 40 μM test compound was added to 19 μL of the 1 μM protein solution such that the final compound concentration was 2 μM. The mixture was stored for 2 hours in an incubator of 25° C., and the reaction was terminated by the addition of 80 μL of a 1×TBS solution containing 0.2% formic acid, followed by LC-MS measurement.
The LC-MS measurement was performed by using Xevo G2-S Q-Tof manufactured by Waters Corp., performing reverse-phase chromatography with a desalting column, and obtaining mass spectra of positive ions by electrospray. For the mass spectra, spectra of polyvalent ions were collectively converted to molecular weights by the MaxEnt technique using OpenLynx software, and then, a compound binding rate was obtained from the ratio of […].
The binding rates of test compounds having a final compound concentration of 2 μM for G12C K-Ras4B (1-169) are shown in the table below. The binding rate for G12C K-Ras4B (1-169) is rated “A” for 80% or more, “B” for 60% or more and less than 80%, “C” for 40% or more and less than 60%, “D” for 20% or more and less than 40%, and “E” for less than 20%.

Row | SMILES | IC50 (KRAS G12C mutant) [nM] | binding rate for G12C K-Ras4B (1-169) (G12C K-Ras4B (1-169))
1 | C=CC(=O)N1CC(NC(=O)c2cc(CNc3cc(C(C)(C)C)c(Cl)cc3O)ccc2F)C1 [Example 23, N-(1-Acryloylazetidin-3-yl)-5-(((5-(tert-butyl)-4-chloro-2-hydroxyphenyl)amino)methyl)-2-fluorobenzamide] | 1000 | C (40% or more and less than 60%)
2 | C=CC(=O)N1CC(NC(=O)c2sc(CNc3cc(C(C)(C)C)c(Cl)cc3O)nc2C(F)(F)F)C1 [Example 24, N-(1-Acryloylazetidin-3-yl)-2-(((5-(tert-butyl)-4-chloro-2-hydroxyphenyl)amino)methyl)-4-(trifluoromethyl)thiazole-5-carboxamide] | 780 | C (40% or more and less than 60%)
3 | C=CC(=O)N1CC(NC(=O)c2cn(C)c(CNc3cc(C(C)(C)C)c(Cl)cc3O)n2)C1 [Example 25, N-(1-Acryloylazetidin-3-yl)-2-(((5-(tert-butyl)-4-chloro-2-hydroxyphenyl)amino)methyl)-1-methyl-1H-imidazole-4-carboxamide] | 4680 | E (less than 20%)
4 | C=CC(=O)N1CC(NC(=O)c2cnc(CNc3cc(C(C)(C)C)c(Cl)cc3O)[nH]2)C1 [Example 26, N-(1-Acryloylazetidin-3-yl)-2-(((5-(tert-butyl)-4-chloro-2-hydroxyphenyl)amino)methyl)-1H-imidazole-5-carboxamide] | 212 | A (80% or more)
5 | C=CC(=O)N1CC(NC(=O)c2c(I)nc(CNc3cc(C(C)(C)C)c(Cl)cc3O)n2C)C1 [Example 27, N-(1-Acryloylazetidin-3-yl)-2-(((5-(tert-butyl)-4-chloro-2-hydroxyphenyl)amino)methyl)-4-iodo-1-methyl-1H-imidazole-5-carboxamide] | 16 | A (80% or more)
6 | C=CC(=O)N1CC(N(C)C(=O)c2cnc(CNc3cc(C(C)(C)C)c(Cl)cc3O)o2)C1 [Example 28, N-(1-Acryloylazetidin-3-yl)-2-(((5-(tert-butyl)-4-chloro-2-hydroxyphenyl)amino)methyl)-N-methyloxazole-5-carboxamide] | 201 | C (40% or more and less than 60%)
7 | C=CC(=O)N1CC(N(C)C(=O)c2cccc(CNc3cc(C(C)(C)C)c(Cl)cc3O)n2)C1 [Example 30, N-(1-Acryloylazetidin-3-yl)-6-(((5-(tert-butyl)-4-chloro-2-hydroxyphenyl)amino)methyl)-N-methylpicolinamide] | 1690 | E (less than 20%)
8 | C=CC(=O)N1CC(N(C)C(=O)c2cnc(CNc3cc(C(C)(C)C)c(Cl)cc3O)s2)C1 [Example 31, N-(1-Acryloylazetidin-3-yl)-2-(((5-(tert-butyl)-4-chloro-2-hydroxyphenyl)amino)methyl)-N-methylthiazole-5-carboxamide] | 247 | C (40% or more and less than 60%)
9 | C=CC(=O)N1CC(N(C)C(=O)c2csc(CNc3cc(C(C)(C)C)c(Cl)cc3O)n2)C1 [Example 32, N-(1-Acryloylazetidin-3-yl)-2-(((5-(tert-butyl)-4-chloro-2-hydroxyphenyl)amino)methyl)-N-methylthiazole-4-carboxamide] | 64 | B (60% or more and less than 80%)
10 | C=CC(=O)N1CC(N(C)C(=O)c2coc(CNc3cc(C(C)(C)C)c(Cl)cc3O)c2)C1 [Example 33, N-(1-Acryloylazetidin-3-yl)-5-(((5-(tert-butyl)-4-chloro-2-hydroxyphenyl)amino)methyl)-N-methylfuran-3-carboxamide] | 1490 | E (less than 20%)

The remaining lines, values ahead:

Row | IC50 (KRAS G12C mutant) [nM] | binding rate for G12C K-Ras4B (1-169) (G12C K-Ras4B (1-169)) | SMILES
11 | 80 | A (80% or more) | C=CC(=O)N1CC(N(C)C(=O)c2cc(CNc3cc(C(C)(C)C)c(Cl)cc3O)co2)C1 [Example 34, N-(1-Acryloylazetidin-3-yl)-4-(((5-(tert-butyl)-4-chloro-2-hydroxyphenyl)amino)methyl)-N-methylfuran-2-carboxamide]
12 | 463 | E (less than 20%) | C=CC(=O)N1CC(N(C)C(=O)c2sc(CNc3cc(C(C)(C)C)c(Cl)cc3O)nc2C)C1 [Example 35, N-(1-Acryloylazetidin-3-yl)-2-(((5-(tert-butyl)-4-chloro-2-hydroxyphenyl)amino)methyl)-N,4-dimethylthiazole-5-carboxamide]
13 | 15 | A (80% or more) | C=CC(=O)N1CC(NC(=O)c2cnc(CNc3cc(C(C)(C)C)c(Cl)cc3O)n2CC)C1 [Example 36, N-(1-Acryloylazetidin-3-yl)-2-(((5-(tert-butyl)-4-chloro-2-hydroxyphenyl)amino)methyl)-1-ethyl-1H-imidazole-5-carboxamide]
14 | 4740 | D (20% or more and less than 40%) | C=CC(=O)N1CC(NC(=O)c2ccc(CNc3cc(C(=C)C)c(Cl)cc3O)o2)C1 [Example 47, N-(1-Acryloylazetidin-3-yl)-5-(((4-chloro-2-hydroxy-5-(prop-1-en-2-yl)phenyl)amino)methyl)furan-2-carboxamide]
15 | 3970 | D (20% or more and less than 40%) | C=CC(=O)N1CC(NC(=O)c2ccc(CNc3cc(C(C)C)c(Cl)cc3O)o2)C1 [Example 48, N-(1-Acryloylazetidin-3-yl)-5-(((4-chloro-2-hydroxy-5-isopropylphenyl)amino)methyl)furan-2-carboxamide]
16 | 1140 | E (less than 20%) | C=CC(=O)N1CC(N(C)C(=O)c2ccc(CNc3cc(OC(F)(F)F)c(Cl)cc3O)o2)C1 [Example 49, N-(1-Acryloylazetidin-3-yl)-5-(((4-chloro-2-hydroxy-5-(trifluoromethoxy)phenyl)amino)methyl)-N-methylfuran-2-carboxamide]
